Assays:
[1] = Metabolic stability in rat liver microsomes assessed as intrinsic clearance; type: ADME, Microsome; details: read-out: CLH
[2] = Metabolic stability in human liver microsomes assessed as clearance; type: ADME, Microsome; details: read-out: CLH

| SMILES | microsomal CLint [1] | microsomal CLint [2] |
| --- | --- | --- |
| Cc1ncc(C(=O)Nc2cn3ccnc3c(CN3CCN(c4noc(C(C)(C)C)n4)[C@@H](C)C3)c2C)cn1 | < 25 µL/min/mg |  |
| Cc1ncc(C(=O)Nc2cc(Cl)cc(CN3CCN(C(=O)C4CCCC4)[C@@H](C)C3)c2C)cn1 | 33 µL/min/mg | 97 µL/min/mg |
| Cc1ncc(C(=O)Nc2cn3ccnc3c(CN3CCN(C(=O)C4CCCC4)[C@@H](C)C3)c2C)cn1 |  | 30 µL/min/mg |
